{"source": "patent US20210386754A1", "about": "“COMPOSITIONS AND METHODS FOR TREATING ATHEROSCLEROTIC VASCULAR DISEASE” (AUGUSTA UNIVERSITY RESEARCH INSTITUTE, INC., priority 2020, published 2021)", "molecules": {"B1": {"name": "M-CSF: macrophage colony-stimulating factor, physiological stimulator of macropinocytosis (protein, UniProt P09603 33-554, looked up)", "Macrophage colony-stimulating …": "EEVSEYCSHMIGSGHLQSLQRLIDSQMETSCQITFEFVDQEQLKDPVCYLKKAFLLVQDIMEDTMRFRDNTPNAIAIVQLQELSLRLKSCFTKDYEEHDKACVRTFYETPLQLLEKVKNVFNETKNLLDKDWNIFSKNCNNSFAECSSQDVVTKPDCNCLYPKAIPSSDPASVSPHQPLAPSMAPVAGLTWEDSEGTEGSSLLPGEQPLHTVDPGSAKQRPPRSTCQSFEPPETPVVKDSTIGGSPQPRPSVGAFNPGMEDILDSAMGTNWVPEEASGEASEIPVPQGTELSPSRPGGGSMQTEPARPSNFLSASSPLPASAKGQQPADVTGTALPRVGPVRPTGQDWNHTPQKTDHPSALLRDPPEPGSPRISSLRPQGLSNPSTLSAQPQLSRSHSSGSVLPLGELEGRRSTRDRRSPAEPEGGPASEGAARPLPRFNSVPLTDTGHERQSEGSFSPQLQESVFHLLVPSVILVLLAVGGLLFYRWRRRSHQEPQRADSPLEQPEGSPLTQDDRQVELPV"}}, "key": {"[1]": {"tested_on": "hypercholesterolemic mice (PCSK9-AAV-mediated LDLR knockdown)", "experiment": "Atherosclerosis model: PCSK9-AAV, partial LCA ligation, Western diet", "assay_type": "in vivo, mouse", "from_the_text": "Mice were given a single injection of AAV-PCSK9 (1×1011 VG) and fed a Western diet (Envigo, TD.88137, Indianapolis, Ind.). One week after AAV-PCSK9 injection, mice underwent partial carotid ligation surgery as previously described (67) and Western diet was continued for another 3 weeks. In separate experiments, mice were given a single injection of AAV-PCSK9 (1×1011 VG) and fed a Western diet for 16 weeks. Mice were anesthetized (isoflurane inhalation, 3%) and exsanguinated. Blood was collected from left ventricle using a heparinized syringe fitted with a 21 G needle. Aortic arch and carotid arteries were collected, and gross macroscopic images were acquired. For molecular histology studies, carotids and aortic arch were fixed in 4% paraformaldehyde (PFA), embedded in OCT compound and stored at −80° C. until use.\nORO staining: Atherosclerosis development in carotid arteries and whole aorta were studied initially by gross imaging followed by Oil Red O (ORO) staining and plaque quantification. Briefly, the entire aorta was isolated, cleaned of peri-adventitial fat, fixed and imaged on the surface of black silicone-coated dissection dishes. Left carotid arteries were embedded in OCT and 10 μm thick cross-sections were prepared. The arteries were divided into 3 regions based on their distance from the aortic arch: proximal (0-400 μm), middle (2,000-2,400 μm) and distal (4,000-4,400 μm). Frozen sections and whole aortas were then stained with ORO solution (2%) and images were taken using light microscope equipped with a camera under 20× and 1.6× objective lens. The total area, lumen area and ORO positive area were measured for six sections/anatomical position per mouse using Image J software. The ratio of ORO positive area to arterial area is represented as plaque area. Plasma total cholesterol concentrations were determined by the Amplex™ Red Cholesterol Assay Kit (ThermoFisher, Rockford, Ill.). Plasma lipid profiles were obtained by column fractionation and measurements of fraction cholesterol content.\nHematoxylin and Eosin (H&E) or Masson's trichrome staining: Frozen sections were also used for Hematoxylin and Eosin (H&E) or Masson's trichrome staining following standard procedures to evaluate the lesion size and collagen content, respectively.\nOrcein and Martius Scarlet Blue (OMSB) staining: OMSB was used for qualitative and quantitative analysis of atherosclerotic plaques as previously described. Briefly, left carotid arteries were dissected out, fixed in 4% buffered paraformaldehyde (pH=7.4) for at least 48 hr, and then routinely processed and embedded in paraffin (tissue processor TP1020; Leica, Wetzlar, Germany). Cross sections were cut every 5 m along the artery (starting from the proximal end) and mounted serially on silanized slides. Sections were stained and mounted automatically using Leica ST5010 Autostainer XL combined with Leica CV5030 Glass Coverslip. Deparaffinized sections through xylene and ethanol, and rehydrate to water. Postfix sections in Bouin's fixative at 56° C. for 1 hour, then rinse for 10 min in tap water to remove traces of picric acid. Stain with orcein for 20 min at 56° C. Differentiate in acidic alcohol for 2 min and then transfer to 96% ethanol for 30 s. Stain with martius yellow for 3 min and rinse in distilled water (2×2 min). Stain with crystal scarlet for 10 min. Differentiate with phosphotungstic acid 2 min and transfer to distilled water (for about 10 s). Stain with methyl blue 5 min. Rinse in acetic acid water 3 min, dehydrate through ethanol and carbol-xylene, clear in xylene, and mount in DPX or other resin. Staining of collagen with picrosirius red. The sections were examined and digital images of stained arteries were recorded using Olympus dotSlide system (Olympus, Tokyo, Japan). Segmentation algorithm allowed to distinguish vessel wall area, lumen area, plaque area, and area of the plaque occupied by collagen. The results were presented as areas of identified components in μm2. […]"}, "[2]": {"settings": "cited from earlier work"}, "[3]": {"tested_on": "macropinocytosis in macrophages", "experiment": "Unbiased screen of FDA-approved drug library for inhibition of macrophage macropinocytosis", "assay_type": "cell-based", "settings": "screen of an FDA-approved drug library"}, "THP-1 macrophages": {"tested_on": "THP-1 macrophages", "experiment": "Foam cell formation / nLDL macropinocytosis, Nile Red FACS", "assay_type": "cell-based, human", "settings": "for macropinocytosis of nLDL (Nile Red fluorescence): M-CSF 100 ng/mL, PDGF 200 ng/mL", "method": "Flow cytometry experiments were performed using the BD Accuri C6 flow cytometer using a standard protocol.\nFoam cell formation: THP-1 macrophages or bone marrow-derived macrophages were treated with vehicle, known macropinocytosis stimulators (PMA 1 μM, M-CSF 100 ng/mL or PDGF 200 ng/mL)+/− macropinocytosis inhibitors (imipramine 10 μM or EIPA 25 μM; 1 hour pre-incubation) in the presence of nLDL, ox-LDL, or ac-LDL ([…]) for 24 hours. Cells were fixed in 2% PFA and stained with Nile Red (50 ng/mL) for 7 min. Fluorescence intensity was measured using the FL3 channel for Nile Red (Ex: 488 nm, Em: 670 nm)."}, "[4]": {"tested_on": "pre-hypertensive patients", "settings": "amiloride monotherapy; independent of blood pressure lowering effect; cited from earlier work"}, "[5]": {"tested_on": "lipopolysaccharide (LPS)-treated ApoE-/- mice", "settings": "Zhao et al. 2012; cited from earlier work"}, "[6]": {"settings": "imipramine-treated vs control mice"}}, "note": "Entries after “also recorded” stand apart in the source; their conditions may differ."}
{"molecule": "CN(C)CCCN1c2ccccc2CCc2ccccc21", "note": "[imipramine]", "values": [{"measurement": "atherosclerotic lesion formation (OMSB staining)", "setting": "[1]; imipramine 9 mg/mL, pump rate 0.11 μl/hour, sc, LDLR-knockdown mice, vs vehicle", "value": "significantly attenuates; also recorded: attenuated"}, {"measurement": "collagen area (collagen %)", "setting": "[1]; imipramine sc vs vehicle", "value": "inhibited"}, {"measurement": "relative internal vessel area (IVA %)", "setting": "[1]; imipramine sc vs vehicle", "value": "inhibited"}, {"measurement": "blood pressure", "setting": "[1]; [6]", "value": "no significant differences"}, {"measurement": "body weight", "setting": "[1]; [6]", "value": "no significant differences"}, {"measurement": "fat mass", "setting": "[1]; [6]", "value": "no significant differences"}, {"measurement": "whole body fluid content", "setting": "[1]; [6]", "value": "no significant differences"}, {"measurement": "oral bio-availability", "setting": "[2]", "value": 95, "unit": "%"}, {"measurement": "IC50", "setting": "[3]", "value": 131, "unit": "nM"}, {"measurement": "M-CSF- and PDGF-induced intracellular lipid accumulation following nLDL treatment (Nile Red)", "setting": "THP-1 macrophages; imipramine 1 hour preincubation, 100 ng/mL M-CSF or 200 ng/mL PDGF, 50 μg/mL nLDL, 24 hours", "value": "inhibited"}]}
{"molecule": "catalase", "values": [{"measurement": "M-CSF- and PDGF-induced nLDL internalization", "setting": "THP-1 macrophages; non-pegylated SOD 100 U/mL and/or catalase 250 U/mL, 1 hr pretreatment, 50 μg/mL nLDL, 24 hours", "value": "did not inhibit"}]}
{"molecule": "N=C(N)NC(=O)c1nc(Cl)c(N)nc1N", "note": "[amiloride]", "values": [{"measurement": "pulse wave velocity (PWV)", "setting": "[4]", "value": "improves"}, {"measurement": "lesion development", "setting": "[5]", "value": "reduces"}]}
{"molecule": "PDGF", "values": [{"measurement": "macropinocytosis of nLDL (Nile Red fluorescence)", "setting": "THP-1 macrophages", "value": "stimulated"}]}
{"molecule": "B1", "values": [{"measurement": "macropinocytosis of nLDL (Nile Red fluorescence)", "setting": "THP-1 macrophages", "value": "stimulated"}]}
